Consider four compounds from patent US20050070461A1, “Means and methods for altering the motility of the gastrointestinal tract” (priority 2002, published 2005).

For data set [1], the system named is murine model for postoperative ileus (gastroparesis after intestinal manipulation). The data set is described as follows: Gastric emptying by scintigraphic imaging after intestinal manipulation (murine model for postoperative ileus). It is filed as in vivo, mice. Particulars: for gastric emptying rate k / half-emptying time: MAb pre-operative, hexamethonium or guanethidine postoperative injection.

The test system of data set [2] is MPO-containing leukocytes in ileal muscularis. The data set is described as follows: Leukocyte recruitment / MPO activity in ileal muscularis after intestinal manipulation. It is filed as in vivo, mice.
Data set [3] relates to gastric emptying in control mice. The data set is described as follows: Gastric emptying in control mice given the anesthetics.

The structures appear in SMILES notation.

Consider `C[N+](C)(C)CCCCCC[N+](C)(C)C` [hexamethonium], for which, in data set [1] (6 hours after IM), the gastroparesis result is listed as “reversed the gastroparesis partially”, the “gastric emptying rate k” value was “normalized” and the half-emptying time entry is reported as “normalized”. Moreover, in data set [1] (24 hours after IM), the development of gastroparesis result is listed as “completely”, the “gastric emptying rate k” value is reported as “normalized” and the half-emptying time entry is reported as “normalized”. Also, the development of gastroparesis entry in data set [1] (mice, time not stated) is given as “capable of preventing the development of gastroparesis”. Also, the “leukocyte influx / recruitment in ileal muscularis (MPO-staining cells)” value in data set [2] (24 hours after IM) is “did not affect”. In addition, the “amount of MPO activity in muscularis homogenates” value in data set [2] (24 hours after surgery) was “did not affect”.
For the compound `Cc1cccc(C)c1N=C1NCCCS1` [xylazine], in data set [3] (xylazine 20 mg/kg used alone), the gastric emptying result is “did not alter gastric emptying”.
`CNC1(c2ccccc2Cl)CCCCC1=O` (stereo not shown) [ketamine]: in data set [3] (xylazine 20 mg/kg in combination ketamine 100 mg/kg), the gastric emptying result is “did not alter gastric emptying”.
Regarding `CN1CCC(=C2c3ccccc3CC(=O)c3sccc32)CC1` [ketotifen], the development of gastroparesis entry in data set [1] (24 hours after IM) is “could be prevented”. In data set [2] (24 hours after IM, ketotifen 10 mg/kg p.o. for five days prior to surgery), the “decrease of postoperative recruitment of MPO-containing leukocytes compared to vehicle” value is recorded as 45%.
